# Target: T1, human M4 receptor (Homo sapiens, UniProt P08173)
# T1 construct: expressed in transfected cells; host or cells: CHO cells
# T1 sequence (P08173 1-479): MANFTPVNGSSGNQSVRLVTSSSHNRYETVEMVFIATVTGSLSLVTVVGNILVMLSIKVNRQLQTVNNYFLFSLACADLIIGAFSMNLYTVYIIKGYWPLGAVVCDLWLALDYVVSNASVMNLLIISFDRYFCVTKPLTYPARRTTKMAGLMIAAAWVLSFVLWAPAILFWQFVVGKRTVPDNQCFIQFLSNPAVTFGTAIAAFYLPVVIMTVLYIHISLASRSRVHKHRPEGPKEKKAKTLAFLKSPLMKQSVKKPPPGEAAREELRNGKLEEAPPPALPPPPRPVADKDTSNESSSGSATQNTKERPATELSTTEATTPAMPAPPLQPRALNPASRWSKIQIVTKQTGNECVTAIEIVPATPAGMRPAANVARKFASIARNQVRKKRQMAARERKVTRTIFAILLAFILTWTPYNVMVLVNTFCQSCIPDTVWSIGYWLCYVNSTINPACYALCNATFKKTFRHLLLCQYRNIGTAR
# Test: Radioligand ([3H]N-methylscopolamine) binding assay, membranes from CHO cells expressing human M4 receptor
# Conditions: Ki against human M4 receptor; membranes from CHO cells; tritiated N-methylscopolamine 1.5 nM; read-out: K
# Outline: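 Competition binding used CHO-cell membranes expressing human M4 with 1.5 nM [3H]N-methylscopolamine and twelve compound concentrations ([…]). Incubation was 90 minutes at 37 °C in 50 mM HEPES, 100 mM NaCl, 5 mM MgCl2, 1 mM EDTA, pH 7.4. Bound ligand was collected by filtration onto PEI-treated glass fibre for Ki.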
row,SMILES,Ki [nM]
1,"C[C@@H]1CN(c2cnc(C(F)(F)F)cn2)CCN1C(=O)NC1CC2(C1)CN(Cc1ccc(Cl)cc1)C2 [Compound 261, (2R)-N-{2-[(4-chlorophenyl)methyl]-2-azaspiro[3.3]heptan-6-yl}-2-methyl-4-[5-(trifluoromethyl)pyrazin-2-yl]piperazine-1-carboxamide]",10 to 100
2,"C[C@@H]1CN(c2ncc(C(F)(F)F)cn2)CCN1C(=O)NC1CC2(C1)CN(Cc1ccc(F)cc1)C2 [Compound 266, (2R)-N-{2-[(4-fluorophenyl)methyl]-2-azaspiro[3.3]heptan-6-yl}-2-methyl-4-[5-(trifluoromethyl)pyrimidin-2-yl]piperazine-1-carboxamide]",100 to 1000
3,"C[C@@H]1CN(c2cnc(C(F)(F)F)cn2)C[C@H](C)N1C(=O)NC1CC2(C1)CN(Cc1ccc(F)cc1)C2 [Compound 267, (2R,6S)-N-{2-[(4-fluorophenyl)methyl]-2-azaspiro[3.3]heptan-6-yl}-2,6-dimethyl-4-[5-(trifluoromethyl)pyrazin-2-yl]piperazine-1-carboxamide]",10 to 100
4,"C[C@@H]1CN(c2cnc(C(F)(F)F)cn2)[C@@H](C)CN1C(=O)NC1CC2(C1)CN(Cc1ccc(F)cc1)C2 [Compound 269, (2R,5S)-N-{2-[(4-fluorophenyl)methyl]-2-azaspiro[3.3]heptan-6-yl}-2,5-dimethyl-4-[5-(trifluoromethyl)pyrazin-2-yl]piperazine-1-carboxamide]",10 to 100
5,"[2H]c1c([2H])c([2H])c(C([2H])([2H])N2CC3(CC(NC(=O)N4[C@H](C)CN(c5ncc(C(F)(F)F)cn5)C[C@@H]4C)C3)C2)c([2H])c1[2H] [Compound 275, (2R,6S)-2,6-dimethyl-N-{2-[(^2H5)phenyl(^2H2)methyl]-2-azaspiro[3.3]heptan-6-yl}-4-[5-(trifluoromethyl)pyrimidin-2-yl]piperazine-1-carboxamide]",< 10
6,"C[C@@H]1CN(c2ncc(C(F)(F)F)cn2)C[C@H](C)N1C(=O)NC1CC2(C1)CN(Cc1cccnc1Cl)C2 [Compound 291, (2R,6S)-N-{2-[(2-chloropyridin-3-yl)methyl]-2-azaspiro[3.3]heptan-6-yl}-2,6-dimethyl-4-[5-(trifluoromethyl)pyrimidin-2-yl]piperazine-1-carboxamide]",100 to 1000
7,"C[C@@H]1CN(c2ncc(C(F)(F)F)cn2)C[C@H](C)N1C(=O)NC1CC2(C1)CN(Cc1ccc3occc3c1)C2 [Compound 298, (2R,6S)-N-[2-(1-benzofuran-5-ylmethyl)-2-azaspiro[3.3]heptan-6-yl]-2,6-dimethyl-4-[5-(trifluoromethyl)pyrimidin-2-yl]piperazine-1-carboxamide]",< 10
8,"COc1ccc(CN2CC3(CC(NC(=O)N4[C@H](C)CN(c5ncc(C(F)(F)F)cn5)C[C@@H]4C)C3)C2)cn1 [Compound 305, (2R,6S)-N-{2-[(6-methoxypyridin-3-yl)methyl]-2-azaspiro[3.3]heptan-6-yl}-2,6-dimethyl-4-[5-(trifluoromethyl)pyrimidin-2-yl]piperazine-1-carboxamide]",10 to 100
9,"C[C@@H]1CN(c2ncc(C(F)(F)F)cn2)C[C@H](C)N1C(=O)NC1CC2(C1)CN(Cc1ccc[nH]1)C2 [Compound 309, (2R,6S)-2,6-dimethyl-N-[2-(1H-pyrrol-2-ylmethyl)-2-azaspiro[3.3]heptan-6-yl]-4-[5-(trifluoromethyl)pyrimidin-2-yl]piperazine-1-carboxamide]",10 to 100
10,"C[C@@H]1CN(c2ncc(C(F)(F)F)cn2)C[C@H](C)N1C(=O)NC1CC2(C1)CN(CC1=CCCCC1)C2 [Compound 313, (2R,6S)-N-[2-(cyclohex-1-en-1-ylmethyl)-2-azaspiro[3.3]heptan-6-yl]-2,6-dimethyl-4-[5-(trifluoromethyl)pyrimidin-2-yl]piperazine-1-carboxamide]",10 to 100
11,"C[C@@H]1CN(c2ncc(C(F)(F)F)cn2)C[C@H](C)N1C(=O)NC1CC2(C1)CN(Cc1ccc([N+](=O)[O-])cc1)C2 [Compound 314, (2R,6S)-2,6-dimethyl-N-{2-[(4-nitrophenyl)methyl]-2-azaspiro[3.3]heptan-6-yl}-4-[5-(trifluoromethyl)pyrimidin-2-yl]piperazine-1-carboxamide]",10 to 100
12,"C[C@@H]1CN(c2ncc(C(F)(F)F)cn2)C[C@H](C)N1C(=O)NC1CC2(C1)CN(Cc1ccncc1)C2 [Compound 317, (2R,6S)-2,6-dimethyl-N-[2-(pyridin-4-ylmethyl)-2-azaspiro[3.3]heptan-6-yl]-4-[5-(trifluoromethyl)pyrimidin-2-yl]piperazine-1-carboxamide]",100 to 1000

# More lines, now with the values ahead:
row,Ki [nM],SMILES
1,10 to 100,"C[C@@H]1CN(c2ncc(C(F)(F)F)cn2)[C@@H](C)CN1C(=O)NC1CC2(C1)CN(Cc1ccc(F)cc1)C2 [Compound 265, (2R,5S)-N-{2-[(4-fluorophenyl)methyl]-2-azaspiro[3.3]heptan-6-yl}-2,5-dimethyl-4-[5-(trifluoromethyl)pyrimidin-2-yl]piperazine-1-carboxamide]"
2,10 to 100,"C[C@@H]1CN(c2cnc(C(F)(F)F)cn2)CCN1C(=O)NC1CC2(C1)CN(Cc1ccc(F)cc1)C2 [Compound 270, (2R)-N-{2-[(4-fluorophenyl)methyl]-2-azaspiro[3.3]heptan-6-yl}-2-methyl-4-[5-(trifluoromethyl)pyrazin-2-yl]piperazine-1-carboxamide]"
3,< 10,"[2H]c1c([2H])c([2H])c(CN2CC3(CC(NC(=O)N4[C@H](C)CN(c5ncc(C(F)(F)F)cn5)C[C@@H]4C)C3)C2)c([2H])c1[2H] [Compound 273, (2R,6S)-N-{2-[(^2H5)benzyl]-2-azaspiro[3.3]heptan-6-yl}-2,6-dimethyl-4-[5-(trifluoromethyl)pyrimidin-2-yl]piperazine-1-carboxamide]"
4,< 10,"[2H]c1c([2H])c([2H])c(C([2H])N2CC3(CC(NC(=O)N4[C@H](C)CN(c5ncc(C(F)(F)F)cn5)C[C@@H]4C)C3)C2)c([2H])c1[2H] (stereo partly drawn) [Compound 274, (2R,6S)-2,6-dimethyl-N-{2-[(^2H5)phenyl(^2H1)methyl]-2-azaspiro[3.3]heptan-6-yl}-4-[5-(trifluoromethyl)pyrimidin-2-yl]piperazine-1-carboxamide]"
5,< 10,"C[C@@H]1CN(c2ncc(C(F)(F)F)cc2F)C[C@H](C)N1C(=O)OC1CC2(C1)CN(Cc1ccccc1)C2 [Compound 277, 2-benzyl-2-azaspiro[3.3]heptan-6-yl (2R,6S)-4-[3-fluoro-5-(trifluoromethyl)pyridin-2-yl]-2,6-dimethylpiperazine-1-carboxylate]"
6,10 to 100,"C[C@@H]1CN(c2ncc(Cl)cn2)C[C@H](C)N1C(=O)OC1CC2(C1)CN(Cc1ccccc1)C2 [Compound 278, 2-benzyl-2-azaspiro[3.3]heptan-6-yl (2R,6S)-4-(5-chloropyrimidin-2-yl)-2,6-dimethylpiperazine-1-carboxylate]"
7,10 to 100,"Cc1nc(N2C[C@@H](C)N(C(=O)OC3CC4(C3)CN(Cc3ccccc3)C4)[C@@H](C)C2)ncc1Cl [Compound 279, 2-benzyl-2-azaspiro[3.3]heptan-6-yl (2R,6S)-4-(5-chloro-4-methylpyrimidin-2-yl)-2,6-dimethylpiperazine-1-carboxylate]"
8,100 to 1000,"CCOc1ccc(N2C[C@@H](C)N(C(=O)NC3CC4(C3)CN(Cc3ccccc3)C4)[C@@H](C)C2)cc1 [Compound 284, (2R,6S)-N-{2-benzyl-2-azaspiro[3.3]heptan-6-yl}-4-(4-ethoxyphenyl)-2,6-dimethylpiperazine-1-carboxamide]"
9,10 to 100,"C[C@@H]1CN(c2ncc(C(F)(F)F)cn2)C[C@H](C)N1C(=O)NC1CC2(C1)CN(Cc1cccnc1)C2 [Compound 303, (2R,6S)-2,6-dimethyl-N-[2-(pyridin-3-ylmethyl)-2-azaspiro[3.3]heptan-6-yl]-4-[5-(trifluoromethyl)pyrimidin-2-yl]piperazine-1-carboxamide]"
10,10 to 100,"C[C@@H]1CN(c2ncc(C(F)(F)F)cn2)C[C@H](C)N1C(=O)NC1CC2(C1)CN(Cc1ccc(Cl)nc1)C2 [Compound 307, (2R,6S)-N-{2-[(6-chloropyridin-3-yl)methyl]-2-azaspiro[3.3]heptan-6-yl}-2,6-dimethyl-4-[5-(trifluoromethyl)pyrimidin-2-yl]piperazine-1-carboxamide]"
11,100 to 1000,"C[C@@H]1CN(c2ncc(C(F)(F)F)cn2)C[C@H](C)N1C(=O)NC1CC2(C1)CN(CCc1ccccc1)C2 [Compound 311, (2R,6S)-2,6-dimethyl-N-[2-(2-phenylethyl)-2-azaspiro[3.3]heptan-6-yl]-4-[5-(trifluoromethyl)pyrimidin-2-yl]piperazine-1-carboxamide]"
12,100 to 1000,"C[C@@H]1CN(c2ncc(C(F)(F)F)cn2)C[C@H](C)N1C(=O)NC1CC2(C1)CN(CCCCc1ccccc1)C2 [Compound 312, (2R,6S)-2,6-dimethyl-N-[2-(4-phenylbutyl)-2-azaspiro[3.3]heptan-6-yl]-4-[5-(trifluoromethyl)pyrimidin-2-yl]piperazine-1-carboxamide]"
13,10 to 100,"CC(C)c1ccc(CN2CC3(CC(NC(=O)N4[C@H](C)CN(c5ncc(C(F)(F)F)cn5)C[C@@H]4C)C3)C2)cc1 [Compound 316, (2R,6S)-2,6-dimethyl-N-(2-{[4-(propan-2-yl)phenyl]methyl}-2-azaspiro[3.3]heptan-6-yl)-4-[5-(trifluroomethyl)pyrimidin-2-yl]piperazine-1-carboxamide]"

# Source: patent publication US20230129359A1, “MUSCARINIC RECEPTOR 4 ANTAGONISTS AND METHODS OF USE” (Neurocrine Biosciences, Inc., priority 2020, published 2023)
